From patent US20240018153A1, “BENZENESULFONAMIDE DERIVATIVES AND USES THEREOF” (2692372 ONTARIO, INC., priority 2020, published 2024)
Values belong to the compound of their own block, whether it stands above or below them.

Legend:
[1] = system: β-Tubulin; experiment: K562 cell lysis and immunoassay, β-tubulin degradation; type: cell-based; parameters: key: Y: β-tubulin bound in cells and tubulin degradation occurred; settings: K562 cells
Protocol: K562 cells (ATCC) were cultured in Iscove's Modified Dulbecco's Medium (IMDM) (Wisent) supplemented with 10% FBS and 1% penicillin/streptomycin. Cells were seeded in 6-well plates at 1.71×10^6 cells/well and incubated at 37° C., 5% CO2 for 16 hours. Cells were treated with compounds at the indicated concentrations or DMSO alone and incubated at 37° C., 5% CO2 for 24 hours. Cell suspensions were centrifugated at 1,400 RPM for 5 minutes at room temperature and supernatants were discarded. Cell pellets were resuspended with 1× RIPA buffer (Millipore) and incubated on ice for 15 minutes. Protein lysates were extracted by centrifugating at 20,000 RPM for 20 minutes at 4° C. Proteins were separated and total β-Tubulin levels were quantified by Simple Western Immunoassay (ProteinSimple) using the Protein Normalization Assay Module for Jess (ProteinSimple) according to the manufacturer's protocol, using a protein concentration of 0.05 μg/μl and an antibody targeting β-Tubulin (Abcam) diluted to 1:800. β-Tubulin levels were quantified relative to the Protein Normalization Reagent and subsequently normalized to the DMSO control.

[2] = biological target: T1, BTK (Homo sapiens (Human), UniProt Q06187); experiment: Ramos RA1 cell lysis and immunoassay, total BTK degradation; type: cell-based; parameters: key to % BTK degradation (RAMOS, 24 h): Y: BTK bound in cells and BTK degradation occurred; concentration or dose not given beside the values; settings: RAMOS cells
T1 sequence (Q06187 whole entry): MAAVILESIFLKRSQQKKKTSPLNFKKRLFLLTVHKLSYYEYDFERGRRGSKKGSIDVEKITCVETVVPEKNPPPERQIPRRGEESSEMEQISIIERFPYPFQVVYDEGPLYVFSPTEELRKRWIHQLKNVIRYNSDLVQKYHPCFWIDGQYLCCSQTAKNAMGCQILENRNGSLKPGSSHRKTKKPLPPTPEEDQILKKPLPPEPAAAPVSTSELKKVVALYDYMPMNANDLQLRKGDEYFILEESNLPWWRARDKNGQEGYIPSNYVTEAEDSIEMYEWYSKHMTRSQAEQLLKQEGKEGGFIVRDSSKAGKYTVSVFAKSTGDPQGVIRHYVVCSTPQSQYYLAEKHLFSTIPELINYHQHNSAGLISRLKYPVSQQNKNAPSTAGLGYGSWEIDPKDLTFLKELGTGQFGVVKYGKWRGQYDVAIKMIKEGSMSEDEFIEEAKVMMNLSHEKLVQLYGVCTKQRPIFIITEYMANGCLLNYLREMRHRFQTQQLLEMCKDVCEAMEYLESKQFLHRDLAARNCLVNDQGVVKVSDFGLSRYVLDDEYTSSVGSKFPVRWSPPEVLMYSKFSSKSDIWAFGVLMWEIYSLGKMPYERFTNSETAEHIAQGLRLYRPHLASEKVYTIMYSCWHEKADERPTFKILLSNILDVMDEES
Protocol: (§1) Ramos RA 1 cells (ATCC) were cultured in RPMI-1640 media (Wisent) supplemented with 10% heat-inactivated FBS and 1% penicillin/streptomycin. Cells were seeded in 6-well plates at 1.71×10^6 cells/well and incubated at 37° C., 5% CO2 for 16 hours. Cells were treated with compound at the indicated concentrations or DMSO alone and incubated at 37° C., 5% CO2 for 24 hours. Cell suspensions were centrifugated at 1,400-1,600 RPM for 5 minutes at room temperature and supernatants were discarded. Cell pellets were resuspended with 1× RIPA buffer (Millipore) and incubated on ice for 15 minutes. Protein lysates were extracted by centrifugating at 20,000 RPM for 20 minutes at 4° C. Proteins were separated and total BTK protein levels were quantified by Simple Western Immunoassay (ProteinSimple) using the 12-230 kDa Jess Separation Module according to the manufacturer's protocol, using a protein concentration of 0.25 μg/μl and antibodies targeting BTK (clone #D3H5, Cell Signalling) and β-Actin (clone #AC-15, Santa Cruz) diluted to 1:400 and 1:10, respectively, where the latter was used as a loading control. An equal ratio of rabbit and mouse HRP-conjugated secondary antibodies was used for detection. BTK protein levels were quantified relative to S-Actin loading levels and subsequently normalized to the DMSO control. Phosphorylated BTK levels were quantified using the Protein Normalization Assay Module for Jess (ProteinSimple) according to the manufacturer's protocol, using a protein concentration of 1.5 μg/μl and an antibody targeting pBTK (Y223) (Cell Signalling) diluted to 1:50. Phosphorylated BTK levels were quantified relative to the Protein Normalization Reagent and subsequently normalized to the DMSO control.

[3] = biological target: T1, BTK; experiment: Ramos RA1 cell lysis and immunoassay, phospho-BTK (Y223) inhibition; type: cell-based; parameters: key: X: BTK bound and autophosphoration of BTK inhibited in cells; settings: RAMOS cells, compound concentration 1 μM
Protocol: as §1

[4] = biological target: RIPK2 (Homo sapiens (Human), UniProt O43353); experiment: In vitro RIPK2 inhibition; type: biochemical; settings: for remaining activity at 1 µM: read-out: % RIPK2 Remaining activity vs DMSO (1 μM, 3 h); for remaining activity at 10 µM: read-out: % RIPK2 Remaining activity vs DMSO (10 μM, 3 h)
Chain of RIPK2 (O43353 whole entry, species assumed): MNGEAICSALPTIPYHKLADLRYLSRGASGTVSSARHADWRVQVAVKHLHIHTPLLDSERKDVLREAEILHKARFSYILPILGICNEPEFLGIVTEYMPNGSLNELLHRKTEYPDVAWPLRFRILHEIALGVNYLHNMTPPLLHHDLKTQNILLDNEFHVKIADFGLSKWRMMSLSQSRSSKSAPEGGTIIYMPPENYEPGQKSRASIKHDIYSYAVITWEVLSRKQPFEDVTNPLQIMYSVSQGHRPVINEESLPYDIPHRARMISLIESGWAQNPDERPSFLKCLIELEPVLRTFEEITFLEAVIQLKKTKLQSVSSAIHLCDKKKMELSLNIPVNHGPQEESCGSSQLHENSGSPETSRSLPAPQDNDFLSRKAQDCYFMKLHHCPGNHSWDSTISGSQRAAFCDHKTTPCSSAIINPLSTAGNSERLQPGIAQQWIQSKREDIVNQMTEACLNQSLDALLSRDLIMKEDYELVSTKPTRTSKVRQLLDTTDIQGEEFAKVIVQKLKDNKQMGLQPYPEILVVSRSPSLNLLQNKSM

[5] = biological target: FGFR4 (Homo sapiens (Human), UniProt P22455); experiment: HTRF KinEASE-TK kinase assay, FGFR4; type: biochemical; settings: for remaining activity at 1 µM: read-out: % FGFR4 Remaining activity vs DMSO (1 μM, 3 h); for remaining activity at 10 µM: read-out: % FGFR4 Remaining activity vs DMSO (10 μM, 3 h)
Chain of FGFR4 (P22455 22-802): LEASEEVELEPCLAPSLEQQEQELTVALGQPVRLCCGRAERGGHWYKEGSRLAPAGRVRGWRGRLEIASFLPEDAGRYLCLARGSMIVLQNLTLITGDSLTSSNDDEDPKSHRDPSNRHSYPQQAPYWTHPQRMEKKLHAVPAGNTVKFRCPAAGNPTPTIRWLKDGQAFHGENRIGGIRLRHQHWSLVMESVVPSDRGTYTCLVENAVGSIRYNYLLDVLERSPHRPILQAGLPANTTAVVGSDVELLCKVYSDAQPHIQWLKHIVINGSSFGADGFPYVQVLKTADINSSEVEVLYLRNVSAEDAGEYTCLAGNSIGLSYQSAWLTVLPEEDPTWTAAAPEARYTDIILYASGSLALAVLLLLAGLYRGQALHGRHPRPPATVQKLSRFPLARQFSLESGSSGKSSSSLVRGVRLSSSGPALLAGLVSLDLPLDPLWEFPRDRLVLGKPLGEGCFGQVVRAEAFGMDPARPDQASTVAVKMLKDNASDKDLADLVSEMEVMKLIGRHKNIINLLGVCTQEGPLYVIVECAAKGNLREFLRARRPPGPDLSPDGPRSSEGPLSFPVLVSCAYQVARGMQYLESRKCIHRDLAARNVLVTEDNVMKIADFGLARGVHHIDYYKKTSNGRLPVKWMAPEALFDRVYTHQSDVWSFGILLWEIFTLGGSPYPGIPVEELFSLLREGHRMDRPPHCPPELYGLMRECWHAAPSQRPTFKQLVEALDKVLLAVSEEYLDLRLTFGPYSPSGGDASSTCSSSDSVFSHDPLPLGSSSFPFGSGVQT
How it was run: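 HTRF ratio (Em 665/620 nm) measured 60 min after EDTA stop with SA-XL665 (31.25 nM) and europium antibody reflects phosphorylated biotinylated substrate. Before substrate/ATP addition, 5.12 nM (0.333 ng/ul) FGFR4 sat with compound 3 h at room temperature.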

[6] = biological target: T1, BTK; experiment: HTRF KinEASE-TK kinase assay, BTK; type: biochemical; settings: 3 h preincubation; for remaining activity at 1 µM: 1 μM compound, read-out: % BTK Remaining activity vs DMSO (1 μM, 3 h); for remaining activity at 10 µM: 10 μM compound, read-out: % BTK Remaining activity vs DMSO (10 μM, 3 h)
How it was run: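 Read-out was the 665 nm to 620 nm ratio, taken 60 min after detection, reflecting phosphorylated biotinylated substrate. Before this, BTK reacted 45 min with substrate and ATP in kinase buffer supplemented with MnCl2 (10 mM), MgCl2 (5 mM), ATPγS (1 uM) and TCEP (1 mM).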

[7] = biological target: BMX (Homo sapiens (Human), UniProt P51813); experiment: HTRF KinEASE-TK kinase assay, BMX; type: biochemical; settings: 3 h preincubation; for remaining activity at 1 µM: 1 uM compound; for remaining activity at 10 µM: 10 uM compound
Chain of BMX (P51813 whole entry): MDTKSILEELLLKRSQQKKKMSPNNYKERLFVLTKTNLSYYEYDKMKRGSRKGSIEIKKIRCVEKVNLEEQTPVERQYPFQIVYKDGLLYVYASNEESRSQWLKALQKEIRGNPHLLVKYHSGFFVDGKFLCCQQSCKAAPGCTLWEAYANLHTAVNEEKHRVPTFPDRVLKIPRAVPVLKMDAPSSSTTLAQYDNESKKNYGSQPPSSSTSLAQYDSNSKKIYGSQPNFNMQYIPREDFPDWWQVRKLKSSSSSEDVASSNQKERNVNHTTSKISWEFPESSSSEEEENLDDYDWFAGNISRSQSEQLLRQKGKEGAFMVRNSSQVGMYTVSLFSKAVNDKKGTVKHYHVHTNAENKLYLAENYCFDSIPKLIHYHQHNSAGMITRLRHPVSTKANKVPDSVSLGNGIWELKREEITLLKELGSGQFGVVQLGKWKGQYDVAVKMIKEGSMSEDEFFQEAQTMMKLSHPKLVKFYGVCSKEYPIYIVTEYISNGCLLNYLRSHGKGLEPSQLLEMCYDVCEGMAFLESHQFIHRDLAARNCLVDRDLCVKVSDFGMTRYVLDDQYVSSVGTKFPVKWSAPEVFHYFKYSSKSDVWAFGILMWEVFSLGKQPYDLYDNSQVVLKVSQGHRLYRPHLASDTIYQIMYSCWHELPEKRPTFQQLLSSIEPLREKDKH
How it was run: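 Phosphorylation was quantified by HTRF KinEASE-TK as the 665/620 nm ratio, read 60 min after EDTA stop with SA-XL665 (31.25 nM) and europium antibody. Before the reaction, 3.03 nM BMX was preincubated with compound for 3 hours at room temperature, and the reaction was started with biotinylated substrate plus ATP.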

[8] = biological target: JAK3 (Homo sapiens (Human), UniProt P52333); experiment: HTRF KinEASE-TK kinase assay, JAK3; type: biochemical; settings: for remaining activity at 1 µM: read-out: % JAK3 Remaining activity vs DMSO (1 μM, 3 h); for remaining activity at 10 µM: read-out: % JAK3 Remaining activity vs DMSO (10 μM, 3 h)
Chain of JAK3 (P52333 781-1124): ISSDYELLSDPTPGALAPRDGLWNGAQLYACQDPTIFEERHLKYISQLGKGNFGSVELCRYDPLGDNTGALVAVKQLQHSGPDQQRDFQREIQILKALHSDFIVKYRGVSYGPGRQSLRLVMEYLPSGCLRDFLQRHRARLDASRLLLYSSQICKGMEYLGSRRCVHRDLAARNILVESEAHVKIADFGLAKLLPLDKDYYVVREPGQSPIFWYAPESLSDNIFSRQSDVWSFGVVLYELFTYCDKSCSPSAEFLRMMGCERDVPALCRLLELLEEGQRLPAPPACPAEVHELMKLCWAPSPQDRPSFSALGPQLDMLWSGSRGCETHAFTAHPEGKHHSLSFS
How it was run: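 HTRF read-out: the Em665/Em620 ratio, measured 60 min after stopping with EDTA, 31.25 nM SA-XL665 and 100-fold diluted Eu-antibody, was taken as phosphorylated substrate. Beforehand, 0.21 nM JAK3 (0.0133 ng/µl) sat with compound for 3 h at room temperature, then biotinylated substrate plus ATP started the reaction.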

[9] = biological target: T2, EGFR (Homo sapiens (Human), UniProt P00533); experiment: HTRF KinEASE-TK kinase assay, EGFR; type: biochemical; settings: 3 h preincubation; for remaining activity at 1 µM: 1 μM compound, read-out: % EGFR Remaining activity vs DMSO (1 μM, 3 h); for remaining activity at 10 µM: 10 μM compound, read-out: % EGFR Remaining activity vs DMSO (10 μM, 3 h)
T2 sequence (P00533 25-1210): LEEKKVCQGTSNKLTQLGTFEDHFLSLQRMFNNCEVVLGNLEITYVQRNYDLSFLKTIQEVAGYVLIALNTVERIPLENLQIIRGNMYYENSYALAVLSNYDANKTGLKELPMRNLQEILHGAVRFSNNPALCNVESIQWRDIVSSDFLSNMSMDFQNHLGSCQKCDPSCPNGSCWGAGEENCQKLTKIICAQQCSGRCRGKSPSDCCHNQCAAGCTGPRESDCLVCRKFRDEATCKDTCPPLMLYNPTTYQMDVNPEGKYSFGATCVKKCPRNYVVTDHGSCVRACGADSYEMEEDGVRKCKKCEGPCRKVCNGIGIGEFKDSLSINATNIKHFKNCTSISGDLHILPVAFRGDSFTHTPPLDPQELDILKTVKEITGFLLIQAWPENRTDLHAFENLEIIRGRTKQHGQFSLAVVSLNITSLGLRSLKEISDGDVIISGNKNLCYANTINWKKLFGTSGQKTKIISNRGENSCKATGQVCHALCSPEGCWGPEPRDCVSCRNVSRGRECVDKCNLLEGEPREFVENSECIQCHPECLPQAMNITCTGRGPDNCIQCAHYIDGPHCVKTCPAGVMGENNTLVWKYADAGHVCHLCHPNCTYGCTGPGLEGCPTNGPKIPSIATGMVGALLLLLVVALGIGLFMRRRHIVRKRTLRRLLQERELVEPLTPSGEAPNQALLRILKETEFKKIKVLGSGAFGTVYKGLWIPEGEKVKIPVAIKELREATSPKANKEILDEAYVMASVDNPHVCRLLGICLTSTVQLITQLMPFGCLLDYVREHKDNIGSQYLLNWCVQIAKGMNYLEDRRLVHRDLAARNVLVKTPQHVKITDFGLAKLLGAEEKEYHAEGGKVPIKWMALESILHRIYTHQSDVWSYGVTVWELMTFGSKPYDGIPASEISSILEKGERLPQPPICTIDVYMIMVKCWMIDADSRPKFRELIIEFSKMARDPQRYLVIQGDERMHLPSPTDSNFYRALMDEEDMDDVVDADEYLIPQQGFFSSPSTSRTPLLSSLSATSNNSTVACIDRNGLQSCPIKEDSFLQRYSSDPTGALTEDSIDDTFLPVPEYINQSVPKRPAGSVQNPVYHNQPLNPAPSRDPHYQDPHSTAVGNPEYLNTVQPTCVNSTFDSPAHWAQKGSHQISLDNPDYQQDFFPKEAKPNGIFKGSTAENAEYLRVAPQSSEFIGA
How it was run: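 Buffer contained 5 mM MgCl2, 2 mM MnCl2 and 1 mM TCEP; compounds at two final concentrations, 1 and 10 uM, with 0.5% DMSO, pre-incubated with the enzyme.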

[10] = biological target: T2, EGFR; experiment: Time-dependent inhibition of EGFR (HTRF); type: biochemical; settings: pre-incubation 0-60 min
Protocol: For the time-dependent inhibition experiments, the activity of EGFR kinase was monitored using a HTRF® KinEASE-TK kit from Cisbio (62TK0PEC) as described above. Six compounds showing higher potency during dose response analysis against EGFR, were further evaluated for their change in inhibitory potency over time. Ibrutinib was used as a positive control. The selected compounds were pre incubated with the kinase at 11 different concentrations, ranging from […] to 25 uM final compound concentrations. The pre incubation times were 0, 2, 5, 10, 15, 30, 45 and 60 min. After the preincubation, the reaction was initiated by adding biotinylated substrate and ATP and the reaction was allowed to proceed for 45 min. […] The reaction was terminated by adding 31.25 nM SA-XL665 and 100 fold diluted europium labelled antibody (Eu-Ab), diluted in 1× detection buffer that contained EDTA. After 60 min of incubation, the fluorescence emission was measured at 620 nm and 665 nm. The ratio of Em 665 nm to Em 620 nm was proportional to the amount of substrate phosphorylated by the kinase. Product formation vs pre-incubation time data were fitted to a one phase exponential decay equation using GraphPad Prism. The same product formation vs inhibitor concentration data were also fitted to a log(antagonist) vs. response—Variable slope equation in GraphPad Prism to provide IC50 values at different pre incubation times.

SMILES: COc1ccc(OCc2c(F)c(F)c(F)c(F)c2S(C)(=O)=O)cc1F [Compound I-17, 1,2,3,4-tetrafluoro-5-((3-fluoro-4-methoxyphenoxy)methyl)-6-(methylsulfonyl) benzene]
Beta-tubulin K562, compound concentration, 24 hrs ([1]; compound concentration 5): Y

SMILES: COc1ccc(CS(=O)(=O)c2c(F)c(F)c(F)c(F)c2OC(F)F)cc1F [Compound I-15, 1-(difluoromethoxy)-2,3,4,5-tetrafluoro-6-((3-fluoro-4-methoxybenzyl)sulfonyl) benzene]
Beta-tubulin K562, compound concentration, 24 hrs ([1]; compound concentration 10): Y

% BTK degradation (RAMOS, 24 h) [2]: Y | pBTK inhibition (RAMOS, 24 h) [3]: X | remaining activity at 1 µM [4]: > 90% | remaining activity at 10 µM [4]: > 90% | remaining activity at 1 µM [5]: 50 to 90% | remaining activity at 10 µM [5]: < 50% | remaining activity at 1 µM [6]: < 50% | remaining activity at 10 µM [6]: < 50% | remaining activity at 1 µM [7]: < 50% | remaining activity at 10 µM [7]: < 50% | remaining activity at 1 µM [8]: > 90% | remaining activity at 10 µM [8]: > 90% | remaining activity at 1 µM [9]: > 90% | remaining activity at 10 µM [9]: > 90%
SMILES: Nc1ncnc2c1c(-c1ccc(Oc3ccccc3)cc1)nn2[C@@H]1CCCN(C(=O)c2c(F)c(F)c(F)c(F)c2S(N)(=O)=O)C1 [Compound I-35, (R)-2-(3-(4-amino-3-(4-phenoxyphenyl)-1H-pyrazolo[3,4-d]pyrimidin-1-yl)piperidine-1-carbonyl)-3,4,5,6-tetrafluorobenzenesulfonamide]

SMILES: C=CC(=O)N1CCC[C@@H](n2nc(-c3ccc(Oc4ccccc4)cc3)c3c(N)ncnc32)C1 [ibrutinib, reference compound]
Time-dependent inhibition of EGFR: product formation versus pre-incubation time ([10]; mono-exponential decay fit): concentration-dependent first order loss of enzyme activity | Time-dependent inhibition of EGFR: IC50 values versus pre-incubation time [10]: decrease as pre-incubation times increase

% BTK degradation (RAMOS, 24 h) [2]: Y | remaining activity at 1 µM [4]: < 50% | remaining activity at 10 µM [4]: < 50% | remaining activity at 1 µM [5]: 50 to 90% | remaining activity at 10 µM [5]: < 50% | remaining activity at 1 µM [6]: 50 to 90% | remaining activity at 10 µM [6]: < 50% | remaining activity at 1 µM [7]: 50 to 90% | remaining activity at 10 µM [7]: < 50% | remaining activity at 1 µM [8]: > 90% | remaining activity at 10 µM [8]: > 90% | remaining activity at 1 µM [9]: > 90% | remaining activity at 10 µM [9]: > 90%
SMILES: CS(=O)(=O)c1c(F)c(F)c(F)c(F)c1C(=O)n1ccc2c(N)ncnc21 [Compound I-49, (4-amino-7H-pyrrolo[2,3-d]pyrimidin-7-yl)(2,3,4,5-tetrafluoro-6-(methylsulfonyl)phenyl)methanone]

SMILES: COc1ccc(NC(=O)c2c(F)c(F)c(F)c(F)c2S(=O)(=O)N(C)C)cc1F [Compound I-9, 2-(N,N-dimethylsulfamoyl)-3,4,5,6-tetrafluoro-N-(3-fluoro-4-methoxyphenyl) benzamide]
Beta-tubulin K562, compound concentration, 24 hrs ([1]; compound concentration 10): Y

SMILES: COc1ccc(N(C)S(=O)(=O)c2c(F)c(F)c(F)c(F)c2C(F)(F)F)cc1F [Compound I-7, 2,3,4,5-tetrafluoro-N-(3-fluoro-4-methoxyphenyl)-N-methyl-6-(trifluoromethyl) benzenesulfonamide]
Beta-tubulin - K562 24 hrs (1 μM) [1]: Y | Beta-tubulin K562, compound concentration, 24 hrs ([1]; compound concentration 0.5): Y

SMILES: COc1ccc(NS(=O)(=O)c2c(F)c(F)c(F)c(F)c2C(F)(F)F)cc1F [Compound I-6, 2,3,4,5-tetrafluoro-N-(3-fluoro-4-methoxyphenyl)-6-(trifluoromethyl) benzenesulfonamide]
Beta-tubulin - K562 24 hrs (1 μM) [1]: Y | Beta-tubulin K562, compound concentration, 24 hrs ([1]; compound concentration 10): Y

SMILES: COc1ccc(CS(=O)(=O)c2c(F)c(F)c(F)c(F)c2OCc2ccccc2)cc1F [Compound I-16, 1-(benzyloxy)-2,3,4,5-tetrafluoro-6-((3-fluoro-4-methoxybenzyl)sulfonyl)benzene]
Beta-tubulin K562, compound concentration, 24 hrs ([1]; compound concentration 10): Y

SMILES: COc1ccc(/N=C/c2c(F)c(F)c(F)c(F)c2S(C)(=O)=O)cc1F [Compound I-11, (E)-N-(3-fluoro-4-methoxyphenyl)-1-(2,3,4,5-tetrafluoro-6-(methylsulfonyl)phenyl) methanimine]
Beta-tubulin K562, compound concentration, 24 hrs ([1]; compound concentration 0.5): Y
